*1 amine or outer side, *2 acyl side, *3 side chain or, on linkers, in order; H or OH if unused. Where a SMILES comes first, the peptide text is derived from it. Bridges are numbered along the chain shown (N, C = ends). Roman numbers before positions name the chains, in order. [ ]: non-standard residue; d: D form. Bip = N[C@@H](Cc1ccc(-c2ccccc2)cc1)C(=O)O; Diglycolyl = O=C(COCC(=O)[*:2])[*:1]; NMeR = CN[C@@H](CCCNC(=N)N)C(=O)O; β3hE = N[C@@H](CCC(=O)O)CC(=O)O; X1 = O=C(c1ccccc1C[*:2])[*:1]; Pen = CC(C)(S)[C@H](N)C(=O)O
These compounds were tested against T1, RPMI 8866 cells (Homo sapiens, UniProt P13612+P26010) (assay: α4β7-MAdCAM Cell Adhesion Assay). Details: thioether monomer peptides, Table 6; read-out: Cell-Adhesion A4B7.
T1 sequence (P13612 34-1032): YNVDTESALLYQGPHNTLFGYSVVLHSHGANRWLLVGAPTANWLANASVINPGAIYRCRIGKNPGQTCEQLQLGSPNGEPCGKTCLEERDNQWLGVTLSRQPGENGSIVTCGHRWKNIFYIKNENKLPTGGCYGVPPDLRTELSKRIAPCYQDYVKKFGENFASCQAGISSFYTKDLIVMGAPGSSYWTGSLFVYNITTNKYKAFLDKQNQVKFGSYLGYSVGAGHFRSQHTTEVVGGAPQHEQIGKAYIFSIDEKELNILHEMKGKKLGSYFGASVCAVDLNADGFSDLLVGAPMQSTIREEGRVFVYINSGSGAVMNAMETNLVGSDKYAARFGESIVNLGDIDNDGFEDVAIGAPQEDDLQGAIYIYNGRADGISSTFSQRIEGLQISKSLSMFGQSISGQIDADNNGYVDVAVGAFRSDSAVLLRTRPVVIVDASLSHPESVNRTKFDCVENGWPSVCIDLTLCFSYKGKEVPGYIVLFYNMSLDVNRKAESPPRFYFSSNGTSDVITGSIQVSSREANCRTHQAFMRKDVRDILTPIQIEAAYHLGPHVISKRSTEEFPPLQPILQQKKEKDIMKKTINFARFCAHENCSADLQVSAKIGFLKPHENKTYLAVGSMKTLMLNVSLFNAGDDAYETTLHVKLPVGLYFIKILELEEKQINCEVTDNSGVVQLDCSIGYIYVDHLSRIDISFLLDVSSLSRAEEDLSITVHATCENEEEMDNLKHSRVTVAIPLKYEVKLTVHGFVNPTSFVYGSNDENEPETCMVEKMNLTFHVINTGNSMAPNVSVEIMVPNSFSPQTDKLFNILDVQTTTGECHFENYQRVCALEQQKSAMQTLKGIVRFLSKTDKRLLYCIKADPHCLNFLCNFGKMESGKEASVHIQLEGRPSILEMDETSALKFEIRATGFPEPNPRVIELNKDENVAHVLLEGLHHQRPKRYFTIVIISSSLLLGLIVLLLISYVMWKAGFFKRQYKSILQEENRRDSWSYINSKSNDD
T1 sequence (P26010 20-798): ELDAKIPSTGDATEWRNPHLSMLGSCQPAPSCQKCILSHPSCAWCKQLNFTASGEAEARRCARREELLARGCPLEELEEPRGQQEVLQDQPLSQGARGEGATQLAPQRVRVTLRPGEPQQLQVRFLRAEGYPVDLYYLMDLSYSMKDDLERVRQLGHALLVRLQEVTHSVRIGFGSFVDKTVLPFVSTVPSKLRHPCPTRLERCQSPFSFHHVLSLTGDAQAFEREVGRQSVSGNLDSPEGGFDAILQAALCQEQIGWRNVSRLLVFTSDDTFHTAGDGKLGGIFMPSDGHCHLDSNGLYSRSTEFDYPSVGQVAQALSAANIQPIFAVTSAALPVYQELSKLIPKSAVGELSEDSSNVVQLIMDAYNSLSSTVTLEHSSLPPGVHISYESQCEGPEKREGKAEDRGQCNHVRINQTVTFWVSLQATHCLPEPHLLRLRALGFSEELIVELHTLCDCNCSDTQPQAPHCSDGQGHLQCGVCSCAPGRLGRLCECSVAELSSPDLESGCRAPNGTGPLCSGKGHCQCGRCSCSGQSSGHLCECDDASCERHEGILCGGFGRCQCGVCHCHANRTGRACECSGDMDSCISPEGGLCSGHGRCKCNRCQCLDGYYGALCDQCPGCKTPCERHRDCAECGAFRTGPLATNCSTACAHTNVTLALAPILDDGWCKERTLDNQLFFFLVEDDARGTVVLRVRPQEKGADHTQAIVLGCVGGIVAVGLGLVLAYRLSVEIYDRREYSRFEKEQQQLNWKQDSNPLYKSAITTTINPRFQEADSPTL
Type: cell-based
Method in brief: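 Peptide inhibition of adhesion measured with MAdCAM-1/Fc chimera immobilised at 200 ng/well and MnCl2-activated (1 mM) RPMI 8866 cells, 30-45 min at 37° C. Adherent cells remaining after three washes detected by MTT reduction at 570 nm, corrected for no-cell wells, giving dose response.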

Structure (SMILES)	IC50 [nM]
CC(C)C[C@@H]1NC(=O)[C@H]([C@@H](C)O)NC(=O)[C@H](CC(=O)O)NC(=O)[C@H](CO)NC(=O)[C@H](CCCNC(=N)N)N(C)C(=O)c2ccccc2CSC(C)(C)[C@@H](C(=O)N[C@@H](Cc2c[nH]c3ccccc23)C(=O)N[C@H](CCC(=O)O)C(=O)N[C@@H](CN)C(N)=O)NC1=O [compound 94] (HELM PEPTIDE1{[meR].S.D.T.L.[Pen].W.[dE].[NC[C@H](N[*:1])C(=O)[*:2]].[am]}|CHEM1{[O=C(c1ccccc1C[*:2])[*:1]]}$PEPTIDE1,CHEM1,1:R1-1:R1|PEPTIDE1,CHEM1,6:R3-1:R2$$$V2.0)	100 to 1000
CC(C)C[C@@H]1NC(=O)[C@H]([C@@H](C)O)NC(=O)[C@H](CC(=O)O)NC(=O)[C@H](CO)NC(=O)[C@H](CCCNC(=N)N)N(C)C(=O)c2ccccc2CSC(C)(C)[C@@H](C(=O)N[C@@H](Cc2ccc3ccccc3c2)C(N)=O)NC1=O [compound 116] (HELM PEPTIDE1{[meR].S.D.T.L.[Pen].[O=C([C@H](Cc1ccc2ccccc2c1)N[*:1])[*:2]].[am]}|CHEM1{[O=C(c1ccccc1C[*:2])[*:1]]}$PEPTIDE1,CHEM1,1:R1-1:R1|PEPTIDE1,CHEM1,6:R3-1:R2$$$V2.0)	25 to 100
CC(C)C[C@@H]1NC(=O)[C@H]([C@@H](C)O)NC(=O)[C@H](CC(=O)O)NC(=O)[C@H](CO)NC(=O)[C@H](CCCNC(=N)N)N(C)C(=O)c2ccccc2CSC(C)(C)[C@@H](C(=O)N[C@@H](Cc2c[nH]c3ccccc23)C(=O)N[C@H](CCC(=O)O)C(=O)N[C@@H](Cc2ccc(O)cc2)C(N)=O)NC1=O [compound 104] (HELM PEPTIDE1{[meR].S.D.T.L.[Pen].W.[dE].Y.[am]}|CHEM1{[O=C(c1ccccc1C[*:2])[*:1]]}$PEPTIDE1,CHEM1,1:R1-1:R1|PEPTIDE1,CHEM1,6:R3-1:R2$$$V2.0)	25 to 100
CC(C)C[C@@H]1NC(=O)[C@H]([C@@H](C)O)NC(=O)[C@H](CC(=O)O)NC(=O)[C@H](CO)NC(=O)[C@H](CCCNC(=N)N)N(C)C(=O)c2ccccc2CSC(C)(C)[C@@H](C(=O)N[C@@H](Cc2c[nH]c3ccccc23)C(=O)N[C@@H](CCC(=O)O)C(=O)N[C@@H](CCN)C(N)=O)NC1=O [compound 93] (HELM PEPTIDE1{[meR].S.D.T.L.[Pen].W.E.[Dab].[am]}|CHEM1{[O=C(c1ccccc1C[*:2])[*:1]]}$PEPTIDE1,CHEM1,1:R1-1:R1|PEPTIDE1,CHEM1,6:R3-1:R2$$$V2.0)	25 to 100
CC(C)C[C@@H]1NC(=O)[C@H]([C@@H](C)O)NC(=O)[C@H](CC(=O)O)NC(=O)[C@H](CO)NC(=O)[C@H](CCCNC(=N)N)N(C)C(=O)c2ccccc2CSC[C@@H](C(=O)N[C@@H](Cc2c[nH]c3ccccc23)C(=O)N[C@@H](CCC(=O)O)C(=O)N[C@H](CCCCN)C(N)=O)NC1=O [compound 55] (HELM PEPTIDE1{[meR].S.D.T.L.C.W.E.[dK].[am]}|CHEM1{[O=C(c1ccccc1C[*:2])[*:1]]}$PEPTIDE1,CHEM1,1:R1-1:R1|PEPTIDE1,CHEM1,6:R3-1:R2$$$V2.0)	100 to 1000
CC(C)C[C@@H]1NC(=O)[C@H]([C@@H](C)O)NC(=O)[C@H](CC(=O)O)NC(=O)[C@H](CO)NC(=O)[C@H](CCCNC(=N)N)N(C)C(=O)c2ccccc2CSC(C)(C)[C@@H](C(=O)N[C@@H](Cc2c[nH]c3ccccc23)C(=O)N[C@H](CCC(=O)O)C(=O)N[C@@H](CO)C(N)=O)NC1=O [compound 100] (HELM PEPTIDE1{[meR].S.D.T.L.[Pen].W.[dE].S.[am]}|CHEM1{[O=C(c1ccccc1C[*:2])[*:1]]}$PEPTIDE1,CHEM1,1:R1-1:R1|PEPTIDE1,CHEM1,6:R3-1:R2$$$V2.0)	25 to 100
CC(C)C[C@@H]1NC(=O)[C@H]([C@@H](C)O)NC(=O)[C@H](CC(=O)O)NC(=O)[C@H](CO)NC(=O)[C@H](CCCNC(=N)N)N(C)C(=O)c2ccccc2CSC(C)(C)[C@@H](C(=O)N[C@@H](Cc2c[nH]c3ccccc23)C(=O)N[C@H](CCC(=O)O)C(=O)N[C@H](CCC(=O)O)C(N)=O)NC1=O [compound 108] (HELM PEPTIDE1{[meR].S.D.T.L.[Pen].W.[dE].[dE].[am]}|CHEM1{[O=C(c1ccccc1C[*:2])[*:1]]}$PEPTIDE1,CHEM1,1:R1-1:R1|PEPTIDE1,CHEM1,6:R3-1:R2$$$V2.0)	25 to 100

Same assay, conditions: thioether peptide dimers, Table 7; read-out: Cell-Adhesion A4B7

Structure (SMILES)	IC50 [nM]
CC(C)C[C@@H]1NC(=O)[C@H]([C@@H](C)O)NC(=O)[C@H](CC(=O)O)NC(=O)[C@H](CO)NC(=O)[C@H](CCCNC(=N)N)N(C)C(=O)C(C)SC[C@@H](C(=O)N[C@@H](Cc2c[nH]c3ccccc23)C(=O)N[C@H](CCCCN)C(N)=O)NC1=O (single isomer, unassigned) [compound 144]	> 1000
CC(C)C[C@@H]1NC(=O)[C@H]([C@@H](C)O)NC(=O)[C@H](CC(=O)O)NC(=O)[C@H](CO)NC(=O)[C@H](CCCNC(=N)N)N(C)C(=O)c2ccccc2CSC[C@H](C(=O)N[C@@H](Cc2c[nH]c3ccccc23)C(=O)N[C@@H](CCC(=O)O)CC(=O)N[C@H](CCCCNC(=O)COCC(=O)NCCCC[C@@H](NC(=O)C[C@H](CCC(=O)O)NC(=O)[C@H](Cc2c[nH]c3ccccc23)NC(=O)[C@H]2CSCc3ccccc3C(=O)N(C)[C@@H](CCCNC(=N)N)C(=O)N[C@@H](CO)C(=O)N[C@@H](CC(=O)O)C(=O)N[C@@H]([C@@H](C)O)C(=O)N[C@@H](CC(C)C)C(=O)N2)C(N)=O)C(N)=O)NC1=O [compound 156] (I: [NMeR]SDTL[dC]W[β3hE][dK]-NH2 / II: [NMeR]SDTL[dC]W[β3hE][dK]-NH2; linker I:9-II:9 via Diglycolyl; linker I:N-I:6, II:N-II:6 via X1)	25 to 100
CC(C)C[C@@H]1NC(=O)[C@H]([C@@H](C)O)NC(=O)[C@H](CC(=O)O)NC(=O)[C@H](CO)NC(=O)[C@H](CCCNC(=N)N)N(C)C(=O)CSC[C@@H](C(=O)N[C@@H](Cc2c[nH]c3ccccc23)C(=O)N[C@H](CCCCNC(=O)COCC(=O)NCCCC[C@@H](NC(=O)[C@H](Cc2c[nH]c3ccccc23)NC(=O)[C@@H]2CSCC(=O)N(C)[C@@H](CCCNC(=N)N)C(=O)N[C@@H](CO)C(=O)N[C@@H](CC(=O)O)C(=O)N[C@@H]([C@@H](C)O)C(=O)N[C@@H](CC(C)C)C(=O)N2)C(N)=O)C(N)=O)NC1=O [compound 143]	100 to 1000
CC(C)C[C@@H]1NC(=O)[C@H]([C@@H](C)O)NC(=O)[C@H](CC(=O)O)NC(=O)[C@H](CO)NC(=O)[C@H](CCCNC(=N)N)N(C)C(=O)c2ccccc2CSC(C)(C)[C@@H](C(=O)N[C@@H](Cc2ccc(-c3ccccc3)cc2)C(=O)N[C@H](CCC(=O)O)C(=O)N[C@H](CCCCNC(=O)COCC(=O)NCCCC[C@@H](NC(=O)[C@@H](CCC(=O)O)NC(=O)[C@H](Cc2ccc(-c3ccccc3)cc2)NC(=O)[C@H]2NC(=O)[C@H](CC(C)C)NC(=O)[C@H]([C@@H](C)O)NC(=O)[C@H](CC(=O)O)NC(=O)[C@H](CO)NC(=O)[C@H](CCCNC(=N)N)N(C)C(=O)c3ccccc3CSC2(C)C)C(=O)O)C(=O)O)NC1=O [compound 208] (I: [NMeR]SDTL[Pen][Bip][dE][dK]-OH / II: [NMeR]SDTL[Pen][Bip][dE][dK]-OH; linker I:9-II:9 via Diglycolyl; linker I:N-I:6, II:N-II:6 via X1)	< 25
